Changes are numbered by the printed parent chain.
Assays:
monkey chymase = target: T1, monkey chymase (Macaca fascicularis, UniProt P56435); assay: Monkey chymase inhibitory activity (in vitro, angiotensin I substrate); format: biochemical; details: chymase purified from monkey cheek pouch and stomach; substrate angiotensin I; 37° C.; read-out: Monkey Chymase Inhibition (IC50:nM)
T1 construct: chymase was extracted from homogenized monkey cheek pouch and stomach; from tissue; host or cells: monkey cheek pouch and stomach
T1 sequence (P56435 22-247): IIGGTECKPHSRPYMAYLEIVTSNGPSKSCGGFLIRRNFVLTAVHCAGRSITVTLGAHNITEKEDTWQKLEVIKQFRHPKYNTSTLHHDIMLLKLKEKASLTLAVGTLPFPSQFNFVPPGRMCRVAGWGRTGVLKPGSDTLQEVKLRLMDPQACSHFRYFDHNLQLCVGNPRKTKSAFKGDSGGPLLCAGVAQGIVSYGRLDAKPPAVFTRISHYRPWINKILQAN
Outline: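 Angiotensin I (substrate stock 5 mg/ml) is cleaved at 37° C by chymase purified from monkey cheek pouch and stomach, after compound pre-incubation, in pH 7.4 sodium phosphate buffer with KCl and Nonidet P-40. Trichloroacetic acid stops the reaction; L-His-L-Leu product is quantified after orthophthalaldehyde reaction.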

human chymase = target: T2, human chymase (Homo sapiens, UniProt P23946); assay: Human chymase inhibitory activity (in vitro, angiotensin I substrate); format: biochemical; details: recombinant human chymase (COS7 cells); substrate angiotensin I; 37° C.; read-out: Human Chymase Inhibition (IC50:nM)
T2 construct: made in house; host or cells: COS7 cells (transient transfection)
T2 sequence (P23946 22-247): T1 sequence (P56435 22-247) with S29F, V44A, K63E, Y159D, L201S, K221Q
Description: The inhibitory activities of the compounds on monkey chymase and human chymase were tested in vitro. The test compounds are as shown by Compound Nos. in Tables 13 and 14.
Preparation of Human Chymase
Human chymase was produced in mammalian cells using a recombinant DNA technique.
Construction of a human prochymase expression plasmid was performed in the following manner. Briefly, single stranded cDNA was synthesized from human heart mRNA (Clontech Laboratories, Inc.). Polymerase chain reaction amplification was carried out using the cDNA as a template and appropriate pairs of primers. The primer sequences were determined based on the human preprochymase. The amplified product was cloned into the plasmid pUC18, and then recloned into the plasmid pBluescript II KS(+) (Stratagene). Finally, the DNA fragment carrying the entire protein-coding sequences of the human preprochymase was inserted to a transient expression vector by the usual method to yield the human prochymase expression plasmid.
Transfection of COS7 cells with the human prochymase expression plasmid was carried out using the FuGene™ 6 transfection reagent (Boehringer Mannheim). About 7 hours after exposure to DNA, the culture medium was changed to a serum-free one. The culture supernatant was collected after 2 days culture.
Human prochymase was purified from the culture supernatant using a heparin actigel column as described above in the preparation of monkey chymase.
In order to produce active chymase, the human prochymase was incubated with dipeptidylpeptidase I (Sigma). The resultant active human chymase was purified using a heparin actigel column as described above. The active human chymase was eluted with 0.01 mol/1000 ml sodium phosphate buffer pH 7.4 containing 2 mol/1000 ml NaCl.
Measurement of Chymase Inhibitory Activity (In Vitro Assay)
The chymase inhibitory activities of compounds I-A of this invention were measured according to the following method. Briefly, the purified monkey or human chymase was diluted to an appropriate concentration with 0.01 mol/1000 ml sodium phosphate buffer, pH 7.4, containing 2 mol/1000 ml KCl and 0.1% Nonidet P-40 and used as enzyme solution. Angiotensin I (Peptide Institute Inc.) was diluted with water to 5 mg/ml and used as substrate solution. Test compounds were serially diluted with 10% DMSO. […] After pre-incubation of the mixture at 37° C., 20 μl of the substrate solution was added to the enzyme-test compound mixture and the new mixture was incubated at 37° C. Fifty μl of 30% trichloroacetic acid solution was finally added to stop the enzymatic reaction.
The amount of L-His-L-Leu was measured as angiotensin II produced by the enzymatic reaction. Briefly, 10 μl of the reaction mixture and 10 μl of 1% orthophthalaldehyde solution dissolved in methanol were mixed with 100 μl of 2 mol/1000 ml NaOH and kept at room temperature. The reaction was then stopped by adding 10 μl of 6 mol/1000 ml HCl. Finally, the fluorescence induced by the reaction was measured using in a photometer with an excitation wavelength of 355 nm and an emission wavelength of 460 nm. Chymase inhibitory activities of test compounds were expressed as 50% inhibitory concentration (IC50).

[1] = tested on: chymase-induced dye leakage; assay: Skin permeability test: inhibition of vascular permeability (Evans Blue dye leakage); format: in vivo; details: male Hartley guinea pigs, 100 mg/kg orally 1 hour before intradermal injection of human chymase
Description: Skin permeability test was carried out according to the following method. Briefly, male Hartley guinea pigs (350-460 g, Shizuoka Laboratory Animal Center, Japan) were anesthetized by intraperitoneal injection of Nembutal™ (30 mg/kg; Dainippon Pharmaceutical Co., Ltd., Japan). After shaving the guinea pigs dorsa, 50 μl of purified human chymase (Elastin Products Inc., USA) diluted with phosphate buffered saline (PBS) to a concentration of 1.8 units /55 μg protein/ml (1 unit of chymase represents the amount of chymase required to hydrolyze 1.0 μmole of N-benzoyl-L-tyrosine-ethyl ester (BTEE) per minute at 25° C.; pH 7.8) were injected intradermally into three dorsal sites of each animal. […] The amounts of dye leakage into the dorsal skins were measured according to the following method.
Briefly, the area around each injection site (16 mm diameter) was punched out from the inside of the skin, and the leaked dye was extracted by incubation of the punched skin in N,N-dimethylformamide (DMF, 3 ml) at 55° C. overnight. The absorbance of the dye extract was then measured using a spectrophotometer at a wavelength of 620 nm. […] The amount of chymase-induced dye leakage (ACDL) and the amount of solvent-induced dye leakage (ASDL) in each animal were calculated as the average of dye leakage from the three treated dorsal sites in each case. […]

[2] = Toxicity study, 2 weeks oral; format: in vivo; details: five-week-old male ddy mice; orally once a day for 2 weeks; 30 and 300 mg/kg/day
Description: Five-week-old male ddy mice were administered orally once a day for 2 weeks with the compound I-A-1 at dose levels of 30 and 300 mg/kg/day.

in vivo = details: male, ddy, mouse, po
Description: Plasma levels of test compounds were measured in the following manner.
Briefly, test compounds were dissolved in DMSO to 100 mg/ml, and suspended with 0.5% tragacanth solution 1 mg/ml. Male ddy mice, weighing about 30 g, were orally administered the test compound solution. After one hour, blood was collected from the heart under anesthesia with Nembutal (Dainippon Pharmaceutical Co., Ltd.) and centrifuged to obtain plasma. The collected plasma (125 μl) was mixed with 10% DMSO (120 μl) and ethyl acetate (720 μl). After centrifugation, the ethyl acetate layer was collected and evaporated. The residue was dissolved and diluted serially as test samples with 10% DMSO. Chymase inhibitory activities of test samples were measured in the same manner as described in Experiment 1. In this chymase inhibitory assay of test samples, 0.1 mol/1000 ml sodium phosphate buffer, pH 7.4 contained 5 mmol/1000 ml ethylenediaminetetraacetic acid (EDTA) disodium salt, 0.77 mmol/1000 ml diisopropyl fluorophosphate (DFP) and 8 mmol/1000 ml dipyridyl. Plasma concentrations of test compounds were calculated from calibration curves.
The calibration curve was obtained in the following manner. Test compounds (0.06-60 ng) were added into the control plasma. The control plasma was treated in the same manner as for test samples. Finally, chymase inhibitory activities of the 10% DMSO-dissolved residues were measured and plotted against the amount of test compounds.

SMILES: Cc1noc(C)c1C(=O)N[C@H](C(=O)N1CCC[C@H]1C(=O)N[C@@H](Cc1csc2ccccc12)C(=O)C(F)(F)F)C(C)C [I-A-1, N-[(1S)-2-((2S)-2-{N-[(1S)-1-(benzo[b]thiophen-3-yl-methyl)-3,3,3-trifluoro-2-oxopropyl]carbamoyl}pyrrolidinyl)-1-(methylethyl)-2-oxoethyl](3,5-dimethylisoxazol-4-yl)carboxamide]
- IC50 (monkey chymase): 3.8 nM
- IC50 (human chymase): 55 nM
- Dye leakage inhibition rate (%) [1]: 34%
- treatment-related finding (body weight, diet consumption, heart, liver, kidney weight, necropsy finding, hematology, blood chemistry) [2]: no treatment-related finding
- concentration at 1 h (in vivo): 480 ng/mL

From US6852744B2, “Pyrrolidine derivatives and their use as chymase inhibitor” (Dainippon Pharmaceutical Co., Ltd., priority 2000, dated 2005)
